Data from article PMC7466295, “An Absorption and Plasma Kinetics Study of Monoterpenes Present in Mastiha Oil in Humans” (Foods, 2020).

What was measured:
[1] = Postprandial plasma kinetics of monoterpenes after a single dose of Mastiha Oil (GC-MS-MS); format: in vivo, human; conditions: for Time of first detection in plasma: human plasma after 1 mL MO; for Area Under Curve: 1 mL MO oral single dose, linear trapezoidal method; for concentration at 24 h: 24 h after 1 mL MO; for Cmax / Tmax: healthy males, 1 mL MO oral single dose after overnight fasting; for concentration at 4 h: 4 h after 1 mL MO
Description: An open label intervention trial was designed to assess the postprandial plasma levels of the main monoterpenes present in MO and their effect in antioxidant capacity. A kinetic approach was applied. Fifty apparently healthy male adults were screened. Ten volunteers were found eligible to the study according to specific criteria (Table 1). Eligible subjects were informed about the aims, methodology, expected effect and any risk from the Information Leaflet of the study, before signing an Informed Consent. The investigator explained that participation was voluntary and participants received a copy of the signed Informed Consent.
A Thermo Ultra GC-Thermo XLS Quantum GC-MS-MS Triple Quad with a DB-5 ms 30 × 0.25 × 0.25 capillary column (Merck KGaA, Darmstadt, Germany) was used. The sample was injected using a Programmed Temperature Vaporizing (PTV) injector that allows concentration of samples, using an automated sampler. Injection volume was 1 µL.
To be able to determine low ppb levels, a GC-MS-MS technique was performed. Signal to noise improves radically compared to traditional GC-MS methods. Full scan MS-MS was first employed in analytical standards which run individually to determine the parent and daughter ions and retention times were validated with the use of analytical standards which run individually.
Initial temperature was held at 50 °C for 2 min. Then temperature was ramped to 60 °C with a rate of 5 °C/min. The temperature reached 270 °C at a rate of 7 °C/min. Injector temperature was set at 250 °C. The splitless injected volume was 1 µL. At 1.2 min the splitless valve switched.
The MS-MS conditions were as follows: Parent Ion was m/z 93 and daughter ions were 91 and 77 for all compounds. Collision energy was set at 8 V and collision gas pressure was 1.5 mTorr. MS-MS scan time was set at 0.15 s. The peak width was maintained at 0.7 amu.
For sample preparation, a 1:1 mixture of ethyl-acetate:hexane was used and equal volumes of blood plasma and extractant were put in centrifuge tubes and vortexed for 20 min. The samples were then centrifuged and filtrated before injection.
To be able to determine low ppb levels, a GC-MS-MS technique was performed, which, compared to traditional GC-MS methods, improves signal to noise values and thus sensitivity in the identification of compounds. Full scan MS-MS was first employed in analytical standards which run individually to determine the parent and daughter ions of the three terpenes and their retention times. Identification of chromatographic peaks was accomplished by using the parent ion and most abundant daughter ion of each compound and comparing the retention times with those of reference standards. For quantification, blank plasma samples (collected prior to MO administration) were spiked with standard monoterpene solutions ([…]), and were treated identically to the samples, since the standard addition method used eliminates the matrix effect. The standard monoterpene solutions were prepared in ethyl acetate in the range 2–2000 μg/L by diluting stock solutions (1 mg/mL). In all preliminary tests the average recovery for the monoterpenes studied was >80% and the detection limit was 0.02 µg/L.
The maximum concentrations of monoterpenes (Cmax) and the time intervals (Tmax) were obtained from each participant’s plasma concentration–time curve. The area under the plasma concentration–time curve (AUC) was analysed using the Linear Trapezoidal method.

[2] = parameters: method as in PMID 29197300; conditions: rats, oral administration; cited from earlier work
[3] = male, oral, human plasma, mean ± SEM

| Time of first detection in plasma [1] [h] | Area Under Curve ([1]; human plasma, mean ± SEM) [ng·h/mL] | concentration at 0.5 h ([1]; male, oral, human plasma, 0.5 h after 1 mL MO, mean ± SEM) [ng/mL] | concentration at 2 h ([1]; male, oral, human plasma, 2 h after 1 mL MO, mean ± SEM) [ng/mL] | concentration at 24 h [1, 3] [ng/mL] | Cmax ([1]; male, human plasma, mean ± SEM) [ng/mL] | Tmax ([1]; male, human plasma, mean ± SEM) [h] | concentration at 4 h [1, 3] [ng/mL] | SMILES | Time at which bioavailable in plasma [2] [h] | Time of peak concentration in plasma [2] [h] |
| --- | --- | --- | --- | --- | --- | --- | --- | --- | --- | --- |
| 0.5 | 15318.0 ± 7313.3 | 775 ± 64 | 906 ± 44.6 | 648 ± 60.3 | 967 ± 89.7 | 2.2 ± 1.7 | – | C=CC(=C)CCC=C(C)C [Myrcene, myrcene] | – | – |
| 0.5 | 7865.2 ± 5547.3 | – | – | 80.6 ± 7.3 | 915 ± 551 | 3.8 ± 1.2 | 839 ± 189 | CC1=CCC2CC1C2(C)C (stereo not drawn) [α-Pinene, α-pinene] | 0.17 | 2.5 |
| 0.5 | 164.0 ± 110.8 | – | – | 2.1 ± 0.3 | 18 ± 10.7 | 3.6 ± 0.9 | 16.7 ± 3.5 | C=C1CCC2CC1C2(C)C (stereo not drawn) [β-Pinene, β-pinene] | – | – |
